Here are results for 1 compound from patent US10624887B2, “Compositions of (-)-17-(cyclobutylmethyl)morphinan-3,14,-diol” (priority 2010, dated 2020).

Common to all, as to type: in vivo, Wistar rats
Assay [1] has as its system vincristine induced painful neuropathy. The assay can be described thus: Vincristine induced painful neuropathy, mechanical allodynia (von Frey filaments). The note with it: vincristine neuropathic rats. An excerpt: (§1) The aim of this study was to evaluate the effect of oral administration of butorphanol in rats with vincristine induced painful neuropathy. The primary measurements were made mechanical and thermal allodynia designed to detect effects of the treatment(s) on neuropathic pain.
(§2) Wistar rats weighing 250±20 g were maintained on standard laboratory diet and having free access to tap water ad lib were employed in the present study. They were housed in the animal house and were exposed to 12 hr cycle of light and dark. The experiments were conducted in a semi-sound proof laboratory. Care of the animals was in accordance with guidelines for experimentation on animals.
The vincristine model was adapted from Authier et al (1999). Rats were injected on five alternate days (day 4, 6, 8, 10 & 12) with vincristine (200 μg/kg i.p.) using an injection volume of 2 ml/kg. […]
Mechano-allodynia was assessed using von Frey filaments. […] Both hind paws were tested for allodynia and the average of the two was recorded as data. Results were expressed in grams and determined before and 30 and 60 min after the administration of the test drugs.
(§3) The anti-nociceptive effect was plotted assessed having time (relative to dosing time point) on the x-axis and percent maximum possible effect (% MPE) on the y-axis. The results were expressed as mean±standard error of means (S.E.M.). […]

Assay [2] concerns nociception in rats. The assay can be described thus: Radiant heat tail flick test. The note with it: butorphanol 1 mg/kg. An excerpt: The tail flick test was first described by D'Amour and Smith (1941), and remains essentially unchanged in application. (See generally D'Amour, F. E. and Smith, D. L., “A method for determining loss of pain sensation”, J. Pharmacol. Exp. Therap., 72:74-79(1941); Dewey, D. L. and Harris, L. S., The Tail-flick test. In: S. Ehrenpreis and A. Neidle (Eds.), Methods in Narcotic Research, Marcel Dekker, Inc., New York, 1975, pp. 101-109; and Dubner, R. and Ren, K., “Assessing transient and persistent pain in animals” In: P. D. Wall and R. Melzack (Eds.), Textbook of Pain, Churchill Livingstone, London, 1999, pp. 359-369). Quite simply, the tail of a rat or mouse is exposed to radiant heat, and the latency to withdraw is determined. The basal heat intensity is set so that naive rats withdraw their tails within 2 to 3 sec. A cut-off latency of 10 sec (i.e., 3 to 4 times basal control value) is commonly employed to prevent tissue damage. […]
Three groups were employed in the present study with each group comprising of 8 animals. […] Area under the curve was calculated using a graph between % MPE and time. Area under the curve was employed as a quantitative measure of the analgesic effect of the treatments.
Nociceptive threshold was measured with the tail flick test (D'Amour and Smith, 1941). […] Tail flick latency is expressed as a percentage of the maximum possible effect (MPE): […]

Assay [3] has as its system vincristine induced painful neuropathy. In words: Vincristine induced painful neuropathy, cold allodynia (acetone drop test). The note with it: vincristine neuropathic rats.
Source text: as §1, §2
The vincristine model was adapted from Authier et al (1999). Rats were injected on five alternate days (day 4, 6, 8, 10 & 12) with vincristine (200 μg/kg i.p.) using an injection volume of 2 ml/kg. Thus, the cumulative dose of vincristine was computed to be 1 mg/kg. Tests took place three days after the last injection and continued over the next three weeks. […]
For the assessment of cold allodynia, which was stable for 3 weeks, the rats were placed on a wire mesh covered with a plastic dome and were allowed to habituate until the exploratory behavior diminished. Cold allodynia was measured as the number of foot withdrawal responses after application of stimuli to the plantar surface of the paw. […] Acetone was applied two times (once every 5 min) on the left paw, and the number of reactions (shaking, tapping, or licking) was counted during 30 sec. […] The score was expressed as accumulated numbers of reactions over the trials and determined before and 30 and 60 min after administration of the test drugs. Each individual test was expressed as a percentage of maximum possible effect (% MPE): […]
MPE (%) at 30 min time point was employed as a quantitative measure of the analgesic effect of the test drugs.
as §3

Entries after “also recorded” stand apart in the source; their conditions may differ.

In the case of `Oc1ccc2c(c1)[C@@]13CCCC[C@@]1(O)[C@@H](C2)N(CC1CCC1)CC3` [butorphanol, (−)17-(Cyclobutylmethyl)morphinan-3,14-diol], the mechanical withdrawal threshold result in assay [1] (oral 1, 3, 10, 30 mg/kg, FIG. 15) is given as “dose dependent increase; also recorded: significant increase”. For the same compound, the “time of peak effect post-administration (mechanical allodynia)” value in assay [1] (oral) stood at 30 min. Also, the tail flick latency result in assay [2] (intra-gastric, intra-ileal and intra-colonic administration, each, rats) is “significant increase”. Moreover, the “antinociceptive effect (area under the curve of % MPE vs time), intra-colonic versus intra-gastric or intra-ileal” value in assay [2] (tail flick, FIG. 13) is “significantly greater antinociceptive effect”. Also, the cold allodynia score result in assay [3] (oral 1, 3, 10, 30 mg/kg, FIG. 16) is reported as “dose dependent decrease”. In assay [3] (oral), the “cold allodynia withdrawal threshold in comparison to the control readings” value is “significant increase” and the “time of peak effect post-administration (cold allodynia)” value is 30 min.
